Test results as given in US8946426B2, “Substituted bicyclic heterocyclic compounds as gamma secretase modulators” (Janssen Pharmaceuticals, Inc., priority 2009, dated 2015).

Columns and labels:
Aβtotal [1] = assay: Method 1: Aβtotal sandwich ELISA in supernatant of SKNBE2 cells carrying APP 695-wild type (Tables 7a, 7b); type: cell-based
Procedure, shortened: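 SKNBE2 cells expressing wild-type APP695 were exposed to compound for 18 Hours in Ultraculture with 1% glutamine. Aβtotal in the supernatant was read by 6E10-capture/biotinylated 4G8 sandwich ELISA with a fluorogenic peroxidase read-out, and WST-1 checked toxicity. IC50 came from a 4-parameter fit of percent inhibition or percent of control versus concentration.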

Aβ42 [2] = assay: Method 1: Aβ42 sandwich ELISA in supernatant of SKNBE2 cells carrying APP 695-wild type (Tables 7a, 7b); type: cell-based
Procedure, shortened: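 SKNBE2 cells expressing wild-type APP695 were exposed to compound for 18 hours. Secreted Aβ42 was quantified by sandwich ELISA with C-terminal-selective capture, biotinylated 3D6 detection and TMB read-out at 450 nm. IC50 came from 4-parameter fits of % inhibition or % of untreated control; WST-1 monitored toxicity.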

Aβ42 [3] = assay: In vivo efficacy: Aβ42 lowering in brain after single oral dose (Table 8); details: mouse brain soluble fraction, ELISA, compared to untreated animals
Excerpt: (§1) To determine whether acute administration of an Aβ42 lowering agent would reduce Aβ42 levels in vivo, non-transgenic rodents, e.g. mice or rats were used. Alternatively, two to three month old Tg2576 mice expressing APP695 containing the “Swedish” variant can be used or a transgenic mouse model developed by Dr. Fred Van Leuven (K.U.Leuven, Belgium) and co-workers, with neuron-specific expression of a clinical mutant of the human amyloid precursor protein [V7171] (Moechars et al., 1999 J. Biol. Chem. 274, 6483). Young transgenic mice have high levels of Aβ in the brain but no detectable Aβ deposition. At approximately 6-8 months of age, the transgenic mice start to display spontaneous, progressive accumulation of β-amyloid (Aβ) in the brain, eventually resulting in amyloid plaques within the subiculum, hippocampus and cortex. Animals treated with the Aβ42 lowering agent were examined and compared to those untreated or treated with vehicle and brain levels of soluble Aβ42 and total Aβ would be quantitated by standard techniques, for example, using ELISA. Treatment periods varied from hours to days and were adjusted based on the results of the Aβ42 lowering once a time course of onset of effect could be established.
(§2) A typical protocol for measuring Aβ42 lowering in vivo is shown but it is only one of many variations that could be used to optimize the levels of detectable Aβ. For example, Aβ42 lowering compounds were formulated in 20% of Captisol® (a sulfobutyl ether of β-cyclodextrin) in water or 20% hydroxypropyl β cyclodextrin. The Aβ42 lowering agents were administered as a single oral dose or by any acceptable route of administration to overnight fasted animals. After four hours, the animals were sacrificed and Aβ42 levels were analysed.
(§3) Blood was collected by decapitation and exsanguinations in EDTA-treated collection tubes. Blood was centrifuged at 1900 g for 10 min at 4° C. and the plasma recovered and flash frozen for later analysis. The brain was removed from the cranium and hindbrain. The cerebellum was removed and the left and right hemisphere were separated. The left hemisphere was stored at −18° C. for quantitative analysis of test compound levels. The right hemisphere was rinsed with phosphate-buffered saline (PBS) buffer and immediately frozen on dry ice and stored at −80° C. until homogenization for biochemical assays.
(§4) Mouse brains were resuspended in 10 volumes of 0.4% DEA (diethylamine)/50 mM NaCl pH 10 (for non-transgenic animals) or 0.1% 3-[(3-cholamidopropyl)-dimethyl-ammonio]-1-propanesulfonate (CHAPS) in tris buffered saline (TBS) (for transgenic animals) containing protease inhibitors (Roche-11873580001 or 04693159000 per gram of tissue, e.g. for 0.158 g brain, add 1.58 ml of 0.4% DEA. All samples were sonicated for 30 sec on ice at 20% power output (pulse mode). Homogenates were centrifuged at 221.300×g for 50 min. The resulting high speed supernatants were then transferred to fresh tubes and were optionally further purified before the next step. A portion of the supernatant was neutralized with 10% 0.5 M Tris-HCl and this was used to quantify Aβtotal.
(§5) The obtained supernatants were purified with Water Oasis HLB reverse phase columns (Waters Corp., Milford, Mass.) to remove non-specific immunoreactive material from the brain lysates prior subsequent Aβ detection. Using a vacuum manifold, all solutions were passed through the columns at a rate of approximately 1 ml per minute, so the vacuum pressure was adjusted accordingly throughout the procedure. Columns were preconditioned with 1 ml of 100% MeOH, before equilibration with 1 ml of H2O. Non-neutralized brain lysates were loaded onto the columns. The loaded samples were then washed twice with the first wash performed with 1 ml of 5% MeOH, and the second wash with 1 ml of 30% MeOH. Finally, the Aβ was eluted from the columns and into 100×30 mm glass tubes, with a solution of 90% MeOH with 2% NH4OH. […]

Aβtotal [4] = assay: In vivo efficacy: Aβtotal lowering in brain after single oral dose (Table 8); details: mouse brain soluble fraction, ELISA, compared to untreated animals
Excerpt: as §1, §2, §3, §4, §5

Aβtotal [5] = assay: Method 2: Aβtotal Alphalisa in supernatant of SKNBE2 cells carrying APP 695-wild type (Table 7c); type: cell-based; details: Method 2, Alphalisa, overnight incubation
Procedure, shortened: (§6)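 SKNBE2 cells expressing wild-type APP695 incubated overnight at 37° C with test compound, 10^4 cells/well. Supernatant Aβ42 (C-terminal JRF/cAβ42/26 with N-terminal JRF/AβN/25) and Aβtotal (JRF/AβN/25 with 4G8) quantified by AlphaLISA. IC50 from 4-parameter fit of percent of untreated control.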

Aβ42 [6] = assay: Method 2: Aβ42 Alphalisa in supernatant of SKNBE2 cells carrying APP 695-wild type (Table 7c); type: cell-based; details: Method 2, Alphalisa, overnight incubation
Procedure, shortened: as §6

[7] = tested on: Notch-processing activity of the γ-secretase-complex; assay: Notch cell-free assay (NICD production from recombinant Notch substrate N99); type: biochemical; details: 1 μM test compound; 0.3-0.5 μM mouse Notch substrate; enriched gamma secretase; 37° C., 6 to 22 h; western blot; control GSI concentration not given
Method: The Notch transmembrane domain is cleaved by gamma secretase to release Notch Intracellular C-terminal Domain (NICD).
To monitor the effect of compounds on NICD production, a recombinant Notch substrate (N99) was prepared. The Notch substrate, comprised of mouse Notch fragment (V1711-E1809), an N-terminal methionine and a C-terminal FLAG sequence ([…]), was expressed in E. coli and purified on a column containing an anti-FLAG M2 affinity matrix.
A typical Notch cell-free assay consisted of 0.3-0.5 μM Notch substrate, an enriched preparation of gamma secretase and 1 μM of a test compound (compounds 16, 18 and 106 of the present invention). Controls included a gamma secretase inhibitor (GSI), such as (2S)—N-[2-(3,5-difluorophenyl)acetyl]-L-alanyl-2-phenyl-glycine 1,1-dimethylethyl ester (DAPT) or (2S)-2-hydroxy-3-methyl-N-[(1S)-1-methyl-2-oxo-2-[[(1S)-2,3,4,5-tetrahydro-3-methyl-2-oxo-1H-3-benzazepin-1-yl]amino]ethyl]-butanamide (Semagacestat), and DMSO, the final concentration of DMSO being 1%. Recombinant Notch substrate was pre-treated with 17 μM DTT (1,4-dithiothreitol) and 0.02% SDS (Sodium Dodecyl Sulfate) and heated at 65° C. for 10 min. The mixture of substrate, gamma secretase and compound/DMSO was incubated at 37° C. for 6 to 22 hours (h). Six-hour incubation was sufficient to produce the maximal amount of NICD and the cleaved product remained stable for an additional 16 H. Reaction products were processed for SDS PAGE (Sodium Dodecyl Sulfate-Poly Acrylamide Gel Electrophoresis) and western blotting. Blots were probed with an anti-Flag M2 antibody, followed by LI-COR infrared secondary antibody, and analyzed with the Odyssey Infrared Imaging System (LI-COR® Biosciences).

mouse Notch2 = assay: Notch cell-based assay (N2-CHO/DL-CHO co-culture, Dual-Glo luciferase, NICD production); details: Mus musculus; N2-CHO/DL-CHO co-culture 16 H; five-point curve 3 μM-0.3 nM; read-out: average IC50 values from the Notch cell-based assay (luciferase assay readouts)
Excerpt: The Notch cell-based assay was based on the interaction of Notch and its ligand in a co-culture system and utilized the Dual-Glo Luciferase Assay System (Promega) to monitor NICD production. Two stable cell lines, N2-CHO and DL-CHO, were established to express full-length mouse Notch2 and Delta respectively. Cells that expressed mouse Notch were also transfected with two plasmids, pTP1-Luc and pCMV-RLuc, to express firefly and Renilla luciferase. Expression of firefly luciferase was under the control of TP1 promoter that responded to NICD activation.
N2-CHO cells were seeded at 1×10^5/well in 24-well plates the day before transfection. On the second day, cells were double transfected with 3 μg/well pTP1-Luc (expressing firefly luciferase) and 0.3 ng/well pCMV-RLuc (expressing Renilla luciferase). After 6 H incubation, transfected N2-CHO cells were washed and DL-CHO cells (2×10^5 cells/well) were added.
Compounds were pre-mixed with DL-CHO cell suspension in a five-point curve. Typically, compound treatment was performed in duplicate with a serial 1:10 dilution (3 μM-0.3 nM) in DMSO. The final concentration of DMSO in a given culture was 1%. Controls included non-transfected cells and transfected cells treated with a GSI or DMSO only. Luciferase assays were performed after 16 H co-culture and compound treatment.
The luciferase assay was carried out according to manufacture's instructions. Briefly, cells were washed with PBS (Phosphate Buffered Saline), lysed with Passive Lysis Buffer (Promega), and incubated at room temperature for 20 min. Lysates were mixed with Dual-Glo Luciferase Reagent and the firefly luciferase activity was measured by reading the luminescence signal in the EnVision 2101 Multilabel reader. Dual-Glo Stop & Glo Reagent was then added to each well and the Renilla luciferase signal was measured.

[8] = Homo sapiens, SKNBE2, Table 7b, averaged IC50, non-linear regression of percentage of control vs log concentration, 4-parameter equation
[9] = Homo sapiens, Table 7a, SKNBE2 cells, compounds 18 h, XLfit 4-parameter fit of percent inhibition, top/bottom fixed to 100/0, hill slope 1
[10] = Table 7b, averaged IC50, non-linear regression of percentage of control vs log concentration, 4-parameter equation

| Compound | IC50 (Aβtotal [1]; [8]) [nM] | IC50 (Aβtotal [1]; [9]) [nM] | IC50 (Aβ42 [2]; [8]) [nM] | IC50 (Aβ42 [2]; [9]) [nM] | Aβ42 (% Ctrl)_Mean (Aβ42 [3]) [% Ctrl] | Aβtotal (% Ctrl)_Mean (Aβtotal [4]) [% Ctrl] | melting point [°C] | effect on the Notch-processing activity of the γ-secretase-complex (production of NICD) [7] | IC50 (mouse Notch2) [nM] | further results |
| --- | --- | --- | --- | --- | --- | --- | --- | --- | --- | --- |
| COc1cc(Nc2cccc3c2nc(-c2ccc(F)cc2)n3C)ccc1-c1cnn(C)c1 [Compound 13] | > 3000 | > 3000 | 63 | 65 | 87 | 105 | 157.6 | – | – | – |
| COc1cc(Nc2nccc3c2nc(-c2ccc(F)cc2)n3C)ccc1-c1cnc(C)o1 [Compound 14] | > 3000 | > 3000 | 105 | 109 | 78 | 91 | 204.9 | – | – | – |
| Cc1ncc(-c2ccc(Nc3cc(F)cc4c3nc(-c3ccc(F)cc3)n4C)cn2)o1 [Compound 106] | – | – | – | – | – | – | – | did not show an effect | – | IC50 (Aβtotal [1]; [10]): > 1000 nM; IC50 (Aβ42 [2]; [10]): 10 nM; IC50 (Aβtotal [5]): > 10000 nM; IC50 (Aβ42 [6]): 24 nM |
| COC(=O)c1cc(Nc2ccc(-c3ocnc3C)c(OC)c2)c2nc(CC(C)C)cn2c1 [Compound 162] | > 10000 | – | 25 | – | – | – | 157.1 | – | – | IC50 (Aβtotal [5]; Homo sapiens): > 10000 nM; IC50 (Aβ42 [6]; Homo sapiens): 32 nM |
| C[C@H](NC(=O)Cc1cc(F)cc(F)c1)C(=O)NC(C(=O)OC(C)(C)C)c1ccccc1 (stereo partly drawn) [DAPT, (2S)—N-[2-(3,5-difluorophenyl)acetyl]-L-alanyl-2-phenyl-glycine 1,1-dimethylethyl ester, reference compound] | – | – | – | – | – | – | – | blocked | 45 | – |
| CC(C)[C@H](O)C(=O)N[C@@H](C)C(=O)N[C@@H]1C(=O)N(C)CCc2ccccc21 [Semagacestat, (2S)-2-hydroxy-3-methyl-N-[(1S)-1-methyl-2-oxo-2-[[(1S)-2,3,4,5-tetrahydro-3-methyl-2-oxo-1H-3-benzazepin-1-yl]amino]ethyl]-butanamide, reference compound] | – | – | – | – | – | – | – | blocked | 40 | – |
